Experimental data reported in patent publication US10052323B2, “Pharmaceutical compositions of 7-(6-(2-hydroxypropan-2-yl)pyridin-3-yl)-1-(trans)-4-methoxycyclohexyl)-3,4-dihydropyrazino [2,3-b]pyrazin-2(1H)-one, a solid form thereof and methods of their use” (Signal Pharmaceuticals, LLC, priority 2013, dated 2018).
Where two headings read alike, the source gives them in different places. Blank lines part the entries; values can stand above or below the compound they belong to.

What was measured:
[1] = Phase 1 crossover pharmacokinetics after a single oral 20 mg dose of tablet and capsule formulations; assay type: in vivo, human
Description: Certain formulations provided herein were evaluated in a Phase 1, open-label, randomized, crossover study.
On Day 1 of Period 1, following an overnight fast of at least 8 hours, subjects were randomized to one of the following 3 sequences to receive Treatment A, B or C (Table 35).
In Treatment A, one 20-mg reference Compound A API-in-capsule was administered orally after at least 8 hour fast with 240 mL of non-carbonated, room temperature water. In Treatment B, one 20-mg tablet of Compound A (Tablet Formulation XIII) was administered under fasted conditions. In Treatment C, four 5-mg tablets of Compound A (Tablet Formulation XIV) were administered under fasted conditions. The 20-mg tablet and four 5-mg tablets were administered orally after at least 8 hour fast with 240 mL of non-carbonated, room temperature water.
For each period, serial blood samples were collected before dosing (zero hour) and at 0.5, 1, 1.5, 2, 2.5, 3, 4, 6, 8, 12, 24, 48, 72, and 96 hours after dosing. Plasma concentrations of Compound A were determined for determining PK parameters, such as AUC0-t, AUC0-∞, Cmax, Tmax, t1/2, CL/F, and Vz/F for Compound A. Plasma PK parameters were calculated using non compartmental methods. Analyses of variance (ANOVA) were performed on the natural log-transformed AUC0-t, AUC0-∞, and Cmax for Compound A. The geometric mean ratios (test/reference) and their 90% confidence intervals were also calculated. For Tmax, non parametric analysis was used to produce median differences.

[2] = Susceptibility of Compound A to hydrolysis; assay type: physicochemical
[3] = Phase 1 food effect study (Part 2), single 20-mg oral dose of Compound A tablet, fed vs fasted; assay type: in vivo, human
Description: The primary objectives of this study are: to characterize the biotransformation and excretion of Compound A following a single 20 mg oral dose of Compound A capsule containing a microtracer of [^14C]-Compound A solution in healthy male subjects (Part 1) and to evaluate the effect of a high-fat meal on the pharmacokinetics (PK) of Compound A following a single oral 20-mg dose of Compound A tablet (Part 2).
Part 2 design: Part 2 will be a 2-period crossover study; in Period 1, subjects (n=12) will be randomized to receive either an oral 20 mg dose of Compound A tablet (Treatment B) under fed (n=6) or fasted (n=6) conditions. In Period 2, subjects will receive Treatment B under converse conditions based on treatment assignment in Period 1. After screening, subjects (n=12) eligible for participation in the study will return to the study center on Day −1 for baseline assessments. Subjects who continue to be qualified for participation in the study will be randomized and enrolled in the study on the morning of Day 1. Subjects (n=6) will be enrolled and randomized to receive Treatment B under fed or fasted conditions on the morning of Day 1 after fasting for at least 8 hours. Fed subjects will be served a standard high fat meal breakfast, or its equivalent, that must be consumed within 30 minutes from serving. Dosing must occur 30 minutes (±5 minutes) after serving a subject breakfast. All subjects (fed and fasted) will fast (not to consume any food) until 4 hours post dose. Water will be allowed during the fasting period. Subjects will be domiciled at the study center from Day −1 until the morning of Day 5 of each period. Subjects will be discharged from the study center on the morning of Day 5 upon satisfactory safety review and completion of study-related procedures. Safety and tolerability data will be monitored and collected following each dosing period. Periods 1 and 2 will be separated by a washout period of at least 7 days (no more than 10 days) from prior dose to the next dose. In certain instances, a longer washout may be acceptable if previously agreed to.
Serial blood samples (10 mL) will be collected at predose (0 hour) and at 0.5, 1, 2, 3, 6, 12, 24, 48, 72 and 96 hours post dose for the determination of plasma concentrations of Compound A and the O-desmethyl metabolite of Compound A. Safety will be monitored throughout the study; safety evaluations will include AE reporting, physical examinations, vital sign measurements, ECG, and clinical laboratory safety tests. Concomitant medications will be assessed and recorded throughout the study as well. In addition, during the subjects' stay-in-the clinic (i.e., confinement period), fasting plasma glucose levels will be monitored as part of the clinical laboratory safety tests. For Parts 1 and 2, all subjects will return to the clinic within 7 to 10 days after the last dose for follow up safety assessments. In the event that a subject discontinues prematurely from the study, every reasonable effort should be made (and documented) to ensure that all procedures and evaluations scheduled for the follow-up visit are performed at the time of discontinuation or a follow-up visit should be scheduled within 7 to 10 days from the discontinuation day.
Part 2 dosing: In Part 2, subjects will fast overnight for at least 8 hours prior to Compound A administration. On the morning of Day 1, each subject will receive a 20-mg tablet of Compound A orally. Subjects randomized to receive Compound A under fed conditions will be a served a standard high fat meal (breakfast).
The standard high fat meal or its equivalent must be consumed within 30 minutes of serving. Dosing must occur 30 minutes (±5 minutes) after serving the meal. The tablet will be administered with approximately 240 mL of non-carbonated, room temperature water. After dosing, subjects will continue to fast until 4 hours after dosing.

[4] = Hygroscopicity by moisture adsorption/desorption (DVS); assay type: physicochemical
Description: Sorption isotherms were obtained using a SMS DVS Intrinsic moisture sorption analyser, controlled by DVS Intrinsic Control software v1.0.0.30. The sample temperature was maintained at 25° C. by the instrument controls. The humidity was controlled by mixing streams of dry and wet nitrogen, with a total flow rate of 200 mL/min. The relative humidity was measured by a calibrated Rotronic probe (dynamic range of 1.0-100% RH), located near the sample. The weight change, (mass relaxation) of the sample as a function of % RH was constantly monitored by the microbalance (accuracy±0.005 mg). Typically 5-20 mg of sample was placed in a tared mesh stainless steel basket under ambient conditions. The sample was loaded and unloaded at 40% RH and 25° C. (typical room conditions). The standard isotherm was performed at 25° C. at 10% RH intervals over a 0-90% RH range. Data analysis was undertaken in Microsoft Excel using DVS Analysis Suite v6.0.0.7.
Hygroscopicity of Form A was determined by moisture adsorption and desorption.

[5] = Pharmacokinetics of metabolite after 7.5-60 mg Compound A (protocol of U.S. provisional 61/653,436); assay type: in vivo, human; conditions: for concentration at 15 day: human, in vivo, read-out: Ctrough
Description: In certain embodiments, the pharmacokinetic parameters in connection with the metabolite of Compound A produced via administration of 7.5 mg, 15 mg, 30 mg, 45 mg and 60 mg of Compound A are obtained using the protocol set forth in Section 5.2.1 (paragraphs [00497]-[00520]) of U.S. provisional application No. 61/653,436, filed May 31, 2012, which is incorporated by reference herein in its entirety.
In certain embodiments, the pharmacokinetic parameters set forth herein are mean values obtained from multiple subjects.

[6] = fed vs fasted, 20 mg Compound A tablet, healthy adult males
[7] = plasma, single 20-mg oral dose of Compound A tablet, Fasted (n = 11)
[8] = plasma, single 20-mg oral dose of Compound A tablet, Fed, high fat meal (n = 11)
[9] = day 1 of administration of about 45 mg of Compound A
[10] = day 1 of administration of about 60 mg of Compound A
[11] = upon administration of about 45 mg of Compound A

CL/F (L/h), geometric mean (geometric CV %) ([1]; plasma, single 20 mg oral dose of Compound A, fasted healthy adult males, Treatment A = API-in-capsule, B = one 20-mg tablet, C = four 5-mg tablets (analyte Compound A)): 20.3 (23) L/h
pharmacokinetics of tablet formulations versus API in capsule ([1]; single dose 20 mg, healthy adult male subjects): comparable
susceptibility to hydrolysis [2]: susceptible to hydrolysis
decrease in Cmax with a high fat meal [3, 6]: ~17%
delay in Tmax with a high fat meal [3, 6]: 2 h
increase in overall exposure (AUCinf) with a high fat meal [3, 6]: ~20%
CL/F (L/h), geometric mean (CV %) [3, 7]: 19.9 (38) L/h
CL/F (L/h), geometric mean (CV %) [3, 8]: 16.7 (38) L/h
Compound: CO[C@H]1CC[C@H](N2C(=O)CNc3ncc(-c4ccc(C(C)(C)O)nc4)nc32)CC1 [Compound A, 7-(6-(2-hydroxypropan-2-yl)pyridin-3-yl)-1-((trans)-4-methoxycyclohexyl)-3,4-dihydropyrazino[2,3-b]pyrazin-2(1H)-one]

XRPD diffractogram after full adsorption/desorption cycle ([4]; DVS cycle, 25° C.): unchanged from the initial Form A
hygroscopicity ([4]; DVS moisture sorption/desorption): not hygroscopic
water uptake ([4]; DVS, 25° C., between 0 and 80% relative humidity): < 0.1 % w/w
Compound: CO[C@H]1CC[C@H](N2C(=O)CNc3ncc(-c4ccc(C(C)(C)O)nc4)nc32)CC1 [Form A, 7-(6-(2-hydroxypropan-2-yl)pyridin-3-yl)-1-((trans)-4-methoxycyclohexyl)-3,4-dihydropyrazino[2,3-b]pyrazin-2(1H)-one]

Tax ([1]; metabolite, upon administration of about 20 mg of Compound A (protocol of Section 6.5.1)): 3 h
tin ([5]; day 1 of administration of about 30 mg of Compound A): 21 h
Tax [5, 9]: 3 h
tin [5, 9]: 17 h
Tax [5, 10]: 5 h
tin [5, 10]: 16 h
Tax ([5]; day 15 of once a day administration of about 30 mg of Compound A): 2 h
Tax ([5]; day 15 of once a day administration of about 45 mg of Compound A): 2 h
Tax ([5]; day 15 of once a day administration of about 60 mg of Compound A): 3 h
concentration at 15 day ([5]; day 15 of once a day administration of about 7.5 mg of Compound A): 267 ng/mL
concentration at 15 day ([5]; day 15 of once a day administration of about 15 mg of Compound A): 145 ng/mL
Tax [5, 11]: 3 h
t1/2 [5, 11]: 14.7 h
decrease in Cmax with a high fat meal [3, 6]: ~17%
increase in overall exposure (AUCinf) with a high fat meal [3, 6]: ~3%
CL/F (L/h), geometric mean (CV %) [3, 7]: 2.0 (38) L/h
CL/F (L/h), geometric mean (CV %) [3, 8]: 2.0 (36) L/h
t1/2 (h), geometric mean (CV %) [3, 8]: 14.9 (29) h
Compound: CC(C)(O)c1ccc(-c2cnc3c(n2)N([C@H]2CC[C@H](O)CC2)C(=O)CN3)cn1 [O-Desmethyl metabolite, 1-((trans)-4-hydroxycyclohexyl)-7-(6-(2-hydroxypropan-2-yl)pyridin-3-yl)-3,4-dihydropyrazino[2,3-b]pyrazin-2(1H)-one]
